pKi: −log10 of the molar value. In brackets after ≈: the same amount, converted by molar mass.
How the values were obtained:
[1] = Uncoupling activity in Wistar rat mitochondria assessed as increase in oxygen consumption by mitochondrial respiration assay relative to 10 uM dinitrophenol; format: ADME
[2] = Distribution coefficient, log D at pH 7.4 by HPLC analysis; format: physicochemical; settings: octanol/water
[3] = Chemical stability in fasted state simulated intestinal fluid up to 8 hrs by HPLC analysis; format: physicochemical; settings: simulated gi fluid
[4] = Aqueous solubility in acetate buffer at pH 4.0 by HPLC analysis; format: physicochemical
[5] = Aqueous solubility in phosphate buffer at pH 7.4 by HPLC analysis; format: physicochemical
[6] = Distribution coefficient, log D at pH 4.0 by HPLC analysis; format: physicochemical; settings: octanol/water
[7] = Aqueous solubility in HCl buffer at pH 1.2 by HPLC analysis; format: physicochemical
[8] = Distribution coefficient, log D at pH 1.2 by HPLC analysis; format: physicochemical; settings: octanol/water
[9] = Chemical stability in […] up to 1 week by HPLC analysis; format: physicochemical; settings: pH 4, 168 h
Serum = experiment: Metabolic stability in human serum up to 8 hrs by HPLC analysis; format: ADME, cell-free
[10] = Half life in rat liver homogenate by HPLC analysis; format: ADME, tissue-based
[11] = molecular target: T1, Catechol O-methyltransferase (Homo sapiens, UniProt P21964); experiment: Inhibition of human recombinant COMT by microplate screening assay
T1 sequence (P21964 whole entry): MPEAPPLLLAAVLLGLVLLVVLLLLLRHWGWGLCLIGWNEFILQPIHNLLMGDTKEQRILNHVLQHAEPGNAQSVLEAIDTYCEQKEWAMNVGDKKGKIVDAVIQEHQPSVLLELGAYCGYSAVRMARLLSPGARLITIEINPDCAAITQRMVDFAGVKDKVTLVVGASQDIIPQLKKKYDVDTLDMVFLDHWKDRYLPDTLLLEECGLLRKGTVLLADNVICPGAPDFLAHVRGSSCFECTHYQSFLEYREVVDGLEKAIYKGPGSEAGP

[12] = Chemical stability in phosphate buffer at pH 7.4 up to 1 week by HPLC analysis; format: physicochemical; settings: pH 7.4, 168 h
[13] = Chemical stability in acetate buffer assessed as hydrolysis half life at pH 4.0 by HPLC analysis; format: physicochemical
[14] = Chemical stability in phosphate buffer assessed as hydrolysis half life at pH 7.4 by HPLC analysis; format: physicochemical
Rattus norvegicus = experiment: AUC in Wistar rat at 10 umol/kg, po up to 6 hrs by LC/MS/MS relative to 3-Chloro-5,6-dihydroxy-7-nitro-benzo[b]thiophene-2-carboxylic acid; format: ADME, organism-based, Plasma; settings: in vivo
[15] = Half life in human serum by HPLC analysis; format: ADME, cell-free
[16] = Chemical stability in fasted state simulated intestinal fluid assessed as hydrolysis half life by HPLC analysis; format: physicochemical
[17] = acetate buffer, read-out: solubility
[18] = HCl buffer, read-out: solubility
[19] = buffer, BLD = below limit of detection

SMILES	Uncoupling concentration [1]	logD ([2]; read-out: logD)	solubility [4, 17]	solubility [5]	solubility [7, 18]	Stability (Serum)	half-life [10]	pKi [11]	Stability [12]	half-life [13]	solubility [7, 19]	half-life [14]	fold change (FC) (Rattus norvegicus)	half-life [15]	other results
O=C(O)c1sc2c([N+](=O)[O-])c(O)c(O)cc2c1Cl	> 50 µM	0.06	53 µg/mL (≈ 183 µM)	15000 µg/mL (≈ 51800 µM)	3.9 µg/mL (≈ 13.5 µM)	–	–	–	–	–	–	–	–	–	Stability [3]: Stable; logD [6]: 1.8; logD [8]: 3.64
COC(=O)c1sc2c([N+](=O)[O-])c(O)c(O)cc2c1Cl	> 10 µM	1.51	4.2 µg/mL (≈ 13.8 µM)	11.4 µg/mL (≈ 37.5 µM)	0.7 µg/mL (≈ 2.31 µM)	Stable	0.33 h	8.66	Stable	–	–	–	–	–	Stability [9]: Stable
CCCOC(=O)c1sc2c([N+](=O)[O-])c(O)c(O)cc2c1Cl	> 5 µM	2.45	0.5 µg/mL (≈ 1.51 µM)	10.8 µg/mL (≈ 32.6 µM)	–	Stable	0.34 h	8.04	Stable	744 h	BLD	–	–	–	–
O=C(OCc1ccccc1)c1sc2c([N+](=O)[O-])c(O)c(O)cc2c1Cl	> 10 µM	–	–	6.9 µg/mL (≈ 18.2 µM)	–	Stable	0.865 h	7.99	–	–	BLD	21.6 h	–	–	logD ([2]; BLD = below limit of detection): BLD; solubility [4, 19]: BLD
CC(C)C(=O)OCOC(=O)c1sc2c([N+](=O)[O-])c(O)c(O)cc2c1Cl	> 50 µM	2.91	–	≥ 200 µg/mL	–	–	≤ 0.0167 h	7.77	–	202 h	BLD	7.6 h	2	5.1 h	Stability [3]: Stable; solubility [4, 19]: BLD
CC(OC(=O)c1sc2c([N+](=O)[O-])c(O)c(O)cc2c1Cl)OC(=O)C(C)C (stereo unspecified)	> 50 µM	3.02	0.6 µg/mL (≈ 1.49 µM)	258 µg/mL (≈ 639 µM)	–	–	≤ 0.0167 h	7.77	–	–	BLD	48 h	0.5	32.3 h	Stability [3]: Stable
CCCC(=O)OCOC(=O)c1sc2c([N+](=O)[O-])c(O)c(O)cc2c1Cl	> 50 µM	–	–	–	–	–	≤ 0.0167 h	7.97	–	–	–	2.5 h	–	5.3 h	–
CCCCOC(=O)c1sc2c([N+](=O)[O-])c(O)c(O)cc2c1Cl	> 2.5 µM	–	0.7 µg/mL (≈ 2.02 µM)	3.2 µg/mL (≈ 9.25 µM)	–	Stable	0.698 h	8.89	Stable	–	BLD	–	–	–	logD ([2]; BLD = below limit of detection): BLD
CC(C)OC(=O)c1sc2c([N+](=O)[O-])c(O)c(O)cc2c1Cl	> 1 µM	1.14	0.5 µg/mL (≈ 1.51 µM)	18.7 µg/mL (≈ 56.4 µM)	–	Stable	2.18 h	8.96	Stable	552 h	BLD	–	–	–	–
CCCC(=O)OC(C)OC(=O)c1sc2c([N+](=O)[O-])c(O)c(O)cc2c1Cl (stereo unspecified)	> 50 µM	2.16	4.6 µg/mL (≈ 11.4 µM)	60.4 µg/mL (≈ 150 µM)	0.5 µg/mL (≈ 1.24 µM)	–	≤ 0.0167 h	7.78	–	–	–	4.5 h	–	25 h	–
CC(C)C(N)C(=O)OCOC(=O)c1sc2c([N+](=O)[O-])c(O)c(O)cc2c1Cl (stereo unspecified)	25 µM	–	17.5 µg/mL (≈ 41.8 µM)	10 µg/mL (≈ 23.9 µM)	6600 µg/mL (≈ 15800 µM)	–	≤ 0.0167 h	8.22	–	40.8 h	–	2 h	0.4	0.06 h	half-life [16]: 31.7 h
O=C(OCc1coc(=O)o1)c1sc2c([N+](=O)[O-])c(O)c(O)cc2c1Cl	–	–	–	–	–	–	≤ 0.0167 h	8.80	–	93.6 h	–	11.7 h	2.1	0.03 h	half-life [16]: 167 h

From ChEMBL document CHEMBL1156974, “Design, synthesis and in vitro/in vivo evaluation of orally bioavailable prodrugs of a catechol-O-methyltransferase inhibitor” (Bioorg Med Chem Lett, 2010)
